Measured values taken from ChEMBL document CHEMBL1811896, “Isoflavone dimers and other bioactive constituents from the figs of Ficus mucuso” (J Nat Prod, 2011).
The source made the active and inactive calls. The rule behind the calls is not given here.

Columns and labels:
Escherichia coli [1] = assay: Inhibition of Escherichia coli beta-glucuronidase assessed as inhibition of p-nitrophenyl-beta-D-glucuronide hydrolysis at 0.08 mM preincubated for 30 mins measured 30 mins after substrate addition by spectrophotometry
[2] = biological target: T1, Enoyl-acyl-carrier protein reductase (Plasmodium falciparum) (UniProt Q965D5); assay: Inhibition of Plasmodium falciparum Enoyl-ACP reductase using crotonyl-CoA as substrate at 0.25 mM peincubated for 5 mins measured after 10 mins of substrate addition by UV-vis spectrophotometry
T1 sequence (whole entry): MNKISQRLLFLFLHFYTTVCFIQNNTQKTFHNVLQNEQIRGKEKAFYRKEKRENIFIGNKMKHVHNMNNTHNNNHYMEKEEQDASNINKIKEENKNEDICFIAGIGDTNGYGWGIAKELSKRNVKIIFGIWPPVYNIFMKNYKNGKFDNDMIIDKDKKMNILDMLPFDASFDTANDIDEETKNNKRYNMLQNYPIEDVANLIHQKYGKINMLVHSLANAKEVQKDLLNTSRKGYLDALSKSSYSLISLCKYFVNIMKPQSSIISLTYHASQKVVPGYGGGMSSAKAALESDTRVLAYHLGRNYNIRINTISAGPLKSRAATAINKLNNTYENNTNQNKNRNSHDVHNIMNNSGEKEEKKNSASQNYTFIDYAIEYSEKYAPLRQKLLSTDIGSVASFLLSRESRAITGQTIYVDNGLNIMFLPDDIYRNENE

[3] = biological target: T1, Enoyl-acyl-carrier protein reductase (Plasmodium falciparum); assay: Inhibition of Plasmodium falciparum Enoyl-ACP reductase using crotonyl-CoA as substrate at 0.15 mM peincubated for 5 mins measured after 10 mins of substrate addition by UV-vis spectrophotometry
[4] = Inhibition of Escherichia coli beta-glucuronidase assessed as inhibition of p-nitrophenyl-beta-D-glucuronide hydrolysis preincubated for 30 mins measured 30 mins after substrate addition by spectrophotometry
Escherichia coli [5] = assay: Inhibition of Escherichia coli beta-glucuronidase assessed as inhibition of p-nitrophenyl-beta-D-glucuronide hydrolysis at 0.20 mM preincubated for 30 mins measured 30 mins after substrate addition by spectrophotometry
Escherichia coli [6] = assay: Inhibition of Escherichia coli beta-glucuronidase assessed as inhibition of p-nitrophenyl-beta-D-glucuronide hydrolysis at 0.05 mM preincubated for 30 mins measured 30 mins after substrate addition by spectrophotometry
[7] = biological target: T1, Enoyl-acyl-carrier protein reductase (Plasmodium falciparum); assay: (§1) Inhibition of Plasmodium falciparum Enoyl-ACP reductase using crotonyl-CoA as substrate peincubated for 5 mins measured after 10 mins of substrate addition by UV-vis spectrophotometry
[8] = biological target: T2, Enoyl-acyl-carrier protein reductase (Plasmodium falciparum, UniProt Q965D5); assay: as §1
T2 sequence (Q965D5 whole entry): T1 sequence (whole entry)

[9] = biological target: T1, Enoyl-acyl-carrier protein reductase (Plasmodium falciparum); conditions: 0.05 mM
Description: Inhibition of Plasmodium falciparum Enoyl-ACP reductase using crotonyl-CoA as substrate at 0.05 mM peincubated for 5 mins measured after 10 mins of substrate addition by UV-vis spectrophotometry

Escherichia coli [10] = assay: Inhibition of Escherichia coli beta-glucuronidase assessed as inhibition of p-nitrophenyl-beta-D-glucuronide hydrolysis at 0.10 mM preincubated for 30 mins measured 30 mins after substrate addition by spectrophotometry
[11] = biological target: T1, Enoyl-acyl-carrier protein reductase (Plasmodium falciparum); assay: Inhibition of Plasmodium falciparum Enoyl-ACP reductase using crotonyl-CoA as substrate at 0.025 mM peincubated for 5 mins measured after 10 mins of substrate addition by UV-vis spectrophotometry
Escherichia coli [12] = assay: Ratio of D-saccharic acid-1,4-lactone IC50 to compound IC50 for Escherichia coli beta-glucuronidase
[13] = biological target: T1, Enoyl-acyl-carrier protein reductase (Plasmodium falciparum); conditions: 0.1 mM
Description: Inhibition of Plasmodium falciparum Enoyl-ACP reductase using crotonyl-CoA as substrate at 0.1 mM peincubated for 5 mins measured after 10 mins of substrate addition by UV-vis spectrophotometry

Structure (SMILES) | inhibition [2] | IC50 [4] | inhibition (Escherichia coli [5]) | other results
CC1(C)C=Cc2c(cc3occ(-c4ccc(O)cc4)c(=O)c3c2O)O1 | 12.6% | – | – | inhibition (Escherichia coli [1]): 17.6%
CC(C)=CCc1c(O)cc2occ(-c3ccc(O)cc3)c(=O)c2c1O [WIGHTEONE] | – | 4.03 µM | 97.3% | inhibition [3]: 42.6%
O=C(O)[C@@H](O)[C@H]1OC(=O)[C@H](O)[C@H]1O | – | – | – | inhibition (Escherichia coli [6]): 99.5%
CCCCC/C=C/CCCCCCC[C@@H](O)[C@@H](O)[C@H](CO)NC(=O)[C@H](O)CCCCCCCCCCCCCCCCCCCCCC | inactive | – | – | inhibition [7]: inactive; inhibition (Escherichia coli [1]): 1.7%
Oc1cc(Cl)ccc1Oc1ccc(Cl)cc1Cl [TRICLOSAN] | – | – | – | IC50 [8]: 0.2 µM; inhibition [9]: 99.5%
COc1ccc(C(=O)O)cc1 [p-ANISIC ACID] | inactive | 124 µM | 66.2% | inhibition [7]: inactive
CC(C)=C[C@@H]1C[C@](C)(/C=C/c2cc(-c3coc4cc(O)cc(O)c4c3=O)ccc2O)Oc2ccc(-c3coc4cc(O)cc(O)c4c3=O)cc21 [MUCUSISOFLAVONE B] | inactive | 14 µM | – | inhibition [7]: inactive; inhibition (Escherichia coli [10]): 70.1%
O=C(O)c1ccc(O)c(O)c1 | – | – | 23.5% | –
C[C@@H]1CC[C@]2(C(=O)O)CC[C@]3(C)C(=CC[C@@H]4[C@@]5(C)C[C@@H](O)[C@H](OC(=O)/C=C/c6ccc(O)cc6)C(C)(C)[C@@H]5CC[C@]43C)[C@@H]2[C@]1(C)O | 3.9% | – | – | inhibition (Escherichia coli [1]): 15.9%
O=c1c(O)c(-c2ccc(O)cc2)oc2cc(O)cc(O)c12 [KAEMPFEROL] | 6.5% | 27.6 µM | 87.5% | –
CC(C)=CCc1cc(-c2coc3c(C(C=C(C)C)c4cc(-c5coc6cc(O)cc(O)c6c5=O)ccc4O)c(O)cc(O)c3c2=O)ccc1O (centres undefined) [MUCUSISOFLAVONE C] | – | 3.08 µM | – | IC50 [8]: 7.69 µM; inhibition [11]: 89.1%; inhibition (Escherichia coli [10]): 94%
CC1=C[C@H](c2cc(-c3coc4cc(O)cc(O)c4c3=O)ccc2O)[C@](C)(/C=C/c2cc(-c3coc4cc(O)cc(O)c4c3=O)ccc2O)CC1 [MUCUSISOFLAVONE A] | inactive | 0.68 µM | 98.7% | inhibition [7]: inactive; Ratio IC50 (Escherichia coli [12]): 71
COc1c(-c2ccc(O)c(O)c2)oc2cc(O)cc(O)c2c1=O [3-O-METHYLQUERCETIN] | – | 44.6 µM | 85.2% | IC50 [8]: 35.2 µM; inhibition [13]: 88.2%
O=c1cc(-c2ccc(O)cc2)oc2cc(O)cc(O)c12 | – | – | 15.7% | –
